{
  "source": "patent US10093713B2",
  "about": "“GIP-GLP-1 dual agonist compounds and methods” (priority 2013, dated 2018)",
  "key": {"human GIP R": {"molecular_target": "T1, human GIP R (Homo sapiens, UniProt P48546)", "T1 construct": "expressed in transfected cells", "T1 sequence (P48546 22-466)": "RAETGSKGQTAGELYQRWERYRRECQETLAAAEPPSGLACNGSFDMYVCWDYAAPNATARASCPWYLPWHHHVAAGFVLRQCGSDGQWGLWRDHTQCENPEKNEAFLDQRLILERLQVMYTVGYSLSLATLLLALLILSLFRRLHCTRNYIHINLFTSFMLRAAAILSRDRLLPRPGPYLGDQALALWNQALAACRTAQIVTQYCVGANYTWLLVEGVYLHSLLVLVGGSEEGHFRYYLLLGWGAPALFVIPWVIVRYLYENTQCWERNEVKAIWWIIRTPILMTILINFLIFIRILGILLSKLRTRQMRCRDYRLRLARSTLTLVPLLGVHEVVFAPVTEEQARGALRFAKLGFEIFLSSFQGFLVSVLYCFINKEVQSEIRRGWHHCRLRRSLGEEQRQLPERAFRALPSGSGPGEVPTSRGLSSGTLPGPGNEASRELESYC", "test": "Human GIP receptor (GIP R) activity assay, cAMP induction (AlphaScreen) in HEK293 cells", "type": "cell-based", "details": "Table 3; most comprehensive data; read-out: hGIP-R cAMP EC50 average value", "summary_of_the_method": "(§1)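 Stable HEK293 clones expressing human GIP R or GLP-1 R, seeded 1 day before; cells washed in Tyrode's buffer (10 mM HEPES, pH 7.4), stimulated, then lysed. cAMP measured by AlphaScreen bead competition (1 h, room temperature, dark). EC50 = concentration giving half-maximal cAMP elevation, from curves of absolute cAMP (nM) vs log concentration.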"}, "human GLP-1 R": {"molecular_target": "T2, human GLP-1 R (Homo sapiens, UniProt P43220)", "T2 construct": "expressed in transfected cells", "T2 sequence (P43220 24-463)": "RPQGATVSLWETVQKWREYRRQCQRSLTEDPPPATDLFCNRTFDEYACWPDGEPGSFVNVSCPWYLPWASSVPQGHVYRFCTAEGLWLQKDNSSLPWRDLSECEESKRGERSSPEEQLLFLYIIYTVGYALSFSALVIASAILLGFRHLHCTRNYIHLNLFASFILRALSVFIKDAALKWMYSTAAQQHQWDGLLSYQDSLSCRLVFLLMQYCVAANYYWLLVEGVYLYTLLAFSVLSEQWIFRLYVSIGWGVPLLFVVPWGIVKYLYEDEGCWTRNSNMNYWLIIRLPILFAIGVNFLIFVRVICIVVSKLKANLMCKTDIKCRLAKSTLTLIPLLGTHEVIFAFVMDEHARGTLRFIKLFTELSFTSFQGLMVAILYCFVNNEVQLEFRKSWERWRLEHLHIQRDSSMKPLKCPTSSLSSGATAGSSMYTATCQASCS", "test": "Human GLP-1 receptor (GLP-1 R) activity assay, cAMP induction (AlphaScreen) in HEK293 cells", "type": "cell-based", "details": "Table 3; most comprehensive data; read-out: hGLP-1-R cAMP EC50 average value", "summary_of_the_method": "as §1"}},
  "note": "*1 amine or outer side, *2 acyl side, *3 side chain or, on linkers, in order; H or OH if unused. Where a SMILES comes first, the peptide text is derived from it. Side-chain parts run from the residue outwards. [ ]: non-standard residue; d: D form. The star is where a group is joined. C20 diacid = O=C(O)CCCCCCCCCCCCCCCCCCC(=O)*; γGlu = O=C(O)[C@H](CCC(=O)[*:2])N[*:1]; Dap = NC[C@H](N)C(=O)O; AEEA = NCCOCCOCC(=O)O; Aib = CC(C)(N)C(=O)O",
  "data": [
    {"compound": "CC[C@H](C)[C@H](NC(=O)[C@H](CO)NC(=O)[C@H](Cc1ccc(O)cc1)NC(=O)[C@H](CC(=O)O)NC(=O)[C@H](CO)NC(=O)[C@@H](NC(=O)[C@H](Cc1ccccc1)NC(=O)[C@@H](NC(=O)CNC(=O)[C@H](CCC(=O)O)NC(=O)C(C)(C)NC(=O)[C@@H](N)Cc1ccc(O)cc1)[C@@H](C)O)[C@@H](C)O)C(=O)N[C@@H](Cc1ccc(O)cc1)C(=O)N[C@@H](CC(C)C)C(=O)N[C@@H](CC(=O)O)C(=O)N[C@@H](CCCCN)C(=O)N[C@@H](CCCCNC(=O)COCCOCCNC(=O)COCCOCCNC(=O)CCCCCCCCCCCCCCCCCCC(=O)O)C(=O)N[C@@H](C)C(=O)N[C@@H](CCC(N)=O)C(=O)N[C@@H](CCCNC(=N)N)C(=O)N[C@@H](C)C(=O)N[C@@H](Cc1ccccc1)C(=O)N[C@H](C(=O)N[C@@H](CCC(=O)O)C(=O)N[C@@H](Cc1c[nH]c2ccccc12)C(=O)N[C@@H](CC(C)C)C(=O)N[C@@H](CC(C)C)C(=O)N[C@@H](C)C(=O)N[C@@H](CCC(N)=O)C(=O)NCC(=O)N1CCC[C@H]1C(=O)N[C@@H](CO)C(=O)N[C@@H](CO)C(=O)NCC(=O)N[C@@H](C)C(=O)N1CCC[C@H]1C(=O)N1CCC[C@H]1C(=O)N1CCC[C@H]1C(=O)N[C@@H](CO)C(N)=O)C(C)C", "note": "[Compound 35] (H-Y[Aib]EGTFTSDYSIYLDKK([AEEA-AEEA-C20 diacid])AQRAFVEWLLAQGPSSGAPPPS-NH2)", "values": [
      {"measurement": "EC50", "setting": "human GIP R", "result": 0.016, "unit": "nM"},
      {"measurement": "EC50", "setting": "human GLP-1 R", "result": 0.012, "unit": "nM"}
    ]},
    {"compound": "CC[C@H](C)[C@H](NC(=O)[C@H](CO)NC(=O)[C@H](Cc1ccc(O)cc1)NC(=O)[C@H](CC(=O)O)NC(=O)[C@H](CO)NC(=O)[C@@H](NC(=O)[C@H](Cc1ccccc1)NC(=O)[C@@H](NC(=O)CNC(=O)[C@H](CCC(=O)O)NC(=O)C(C)(C)NC(=O)[C@@H](N)Cc1ccc(O)cc1)[C@@H](C)O)[C@@H](C)O)C(=O)N[C@@H](Cc1ccc(O)cc1)C(=O)N[C@@H](CC(C)C)C(=O)N[C@@H](CC(=O)O)C(=O)N[C@@H](CCCCN)C(=O)N[C@@H](CCCCNC(=O)CC[C@H](NC(=O)CCCCCCCCCCCCCCCCCCC(=O)O)C(=O)O)C(=O)N[C@@H](C)C(=O)N[C@@H](CCC(N)=O)C(=O)N[C@@H](CCCNC(=N)N)C(=O)N[C@@H](C)C(=O)N[C@@H](Cc1ccccc1)C(=O)N[C@H](C(=O)N[C@@H](CCC(=O)O)C(=O)N[C@@H](Cc1c[nH]c2ccccc12)C(=O)N[C@@H](CC(C)C)C(=O)N[C@@H](CC(C)C)C(=O)N[C@@H](C)C(=O)N[C@@H](CCC(N)=O)C(=O)NCC(=O)N1CCC[C@H]1C(=O)N[C@@H](CO)C(=O)N[C@@H](CO)C(=O)NCC(=O)N[C@@H](C)C(=O)N1CCC[C@H]1C(=O)N1CCC[C@H]1C(=O)N1CCC[C@H]1C(=O)N[C@@H](CO)C(N)=O)C(C)C", "note": "[Compound 36] (H-Y[Aib]EGTFTSDYSIYLDKK([γGlu-C20 diacid])AQRAFVEWLLAQGPSSGAPPPS-NH2)", "values": [
      {"measurement": "EC50", "setting": "human GIP R", "result": 0.01, "unit": "nM"},
      {"measurement": "EC50", "setting": "human GLP-1 R", "result": 0.015, "unit": "nM"}
    ]},
    {"compound": "CC[C@H](C)[C@H](NC(=O)[C@H](CO)NC(=O)[C@H](Cc1ccc(O)cc1)NC(=O)[C@H](CC(=O)O)NC(=O)[C@H](CO)NC(=O)[C@@H](NC(=O)[C@H](Cc1ccccc1)NC(=O)[C@@H](NC(=O)CNC(=O)[C@H](CCC(=O)O)NC(=O)C(C)(C)NC(=O)[C@@H](N)Cc1ccc(O)cc1)[C@@H](C)O)[C@@H](C)O)C(=O)N[C@@H](Cc1ccc(O)cc1)C(=O)N[C@@H](CC(C)C)C(=O)N[C@@H](CC(=O)O)C(=O)N[C@@H](CCCCN)C(=O)N[C@@H](CCCCNC(=O)COCCOCCNC(=O)COCCOCCNC(=O)[C@H](CN)NC(=O)CCCCCCCCCCCCCCCCCCC(=O)O)C(=O)N[C@@H](C)C(=O)N[C@@H](CCC(N)=O)C(=O)N[C@@H](CCCNC(=N)N)C(=O)N[C@@H](C)C(=O)N[C@@H](Cc1ccccc1)C(=O)N[C@H](C(=O)N[C@@H](CCC(=O)O)C(=O)N[C@@H](Cc1c[nH]c2ccccc12)C(=O)N[C@@H](CC(C)C)C(=O)N[C@@H](CC(C)C)C(=O)N[C@@H](C)C(=O)N[C@@H](CCC(N)=O)C(=O)NCC(=O)N1CCC[C@H]1C(=O)N[C@@H](CO)C(=O)N[C@@H](CO)C(=O)NCC(=O)N[C@@H](C)C(=O)N1CCC[C@H]1C(=O)N1CCC[C@H]1C(=O)N1CCC[C@H]1C(=O)N[C@@H](CO)C(N)=O)C(C)C", "note": "[Compound 37] (H-Y[Aib]EGTFTSDYSIYLDKK([AEEA-AEEA-Dap-C20 diacid])AQRAFVEWLLAQGPSSGAPPPS-NH2)", "values": [
      {"measurement": "EC50", "setting": "human GIP R", "result": 0.017, "unit": "nM"},
      {"measurement": "EC50", "setting": "human GLP-1 R", "result": 0.014, "unit": "nM"}
    ]},
    {"compound": "CC[C@H](C)[C@H](NC(=O)[C@H](CO)NC(=O)[C@H](Cc1ccc(O)cc1)NC(=O)[C@H](CC(=O)O)NC(=O)[C@H](CO)NC(=O)[C@@H](NC(=O)[C@H](Cc1ccccc1)NC(=O)[C@@H](NC(=O)CNC(=O)[C@H](CCC(=O)O)NC(=O)C(C)(C)NC(=O)[C@@H](N)Cc1ccc(O)cc1)[C@@H](C)O)[C@@H](C)O)C(=O)N[C@@H](C)C(=O)N[C@@H](CC(C)C)C(=O)N[C@@H](CC(=O)O)C(=O)N[C@@H](CCCCN)C(=O)N[C@@H](CCCCNC(=O)COCCOCCNC(=O)COCCOCCNC(=O)CC[C@H](NC(=O)CCCCCCCCCCCCCCCCCCC(=O)O)C(=O)O)C(=O)N[C@@H](C)C(=O)N[C@@H](CCC(N)=O)C(=O)N[C@@H](CCCNC(=N)N)C(=O)N[C@@H](C)C(=O)N[C@@H](Cc1ccccc1)C(=O)N[C@H](C(=O)N[C@@H](CCC(=O)O)C(=O)N[C@@H](Cc1c[nH]c2ccccc12)C(=O)N[C@@H](CC(C)C)C(=O)N[C@@H](CC(C)C)C(=O)N[C@@H](C)C(=O)N[C@@H](CCC(N)=O)C(=O)N[C@@H](CCCCN)C(=O)N1CCC[C@H]1C(=O)N[C@@H](CO)C(=O)N[C@@H](CO)C(=O)NCC(=O)N[C@@H](C)C(=O)N1CCC[C@H]1C(=O)N1CCC[C@H]1C(=O)N1CCC[C@H]1C(=O)N[C@@H](CO)C(N)=O)C(C)C", "note": "[Compound 38] (H-Y[Aib]EGTFTSDYSIALDKK([AEEA-AEEA-γGlu-C20 diacid])AQRAFVEWLLAQKPSSGAPPPS-NH2)", "values": [
      {"measurement": "EC50", "setting": "human GIP R", "result": 0.005, "unit": "nM"},
      {"measurement": "EC50", "setting": "human GLP-1 R", "result": 0.012, "unit": "nM"}
    ]},
    {"compound": "CC[C@H](C)[C@H](NC(=O)[C@H](CO)NC(=O)[C@H](Cc1ccc(O)cc1)NC(=O)[C@H](CC(=O)O)NC(=O)[C@H](CO)NC(=O)[C@@H](NC(=O)[C@H](Cc1ccccc1)NC(=O)[C@@H](NC(=O)CNC(=O)[C@H](CCC(=O)O)NC(=O)[C@@H](C)NC(=O)[C@@H](N)Cc1ccc(O)cc1)[C@@H](C)O)[C@@H](C)O)C(=O)N[C@@H](C)C(=O)N[C@@H](CC(C)C)C(=O)N[C@@H](CC(=O)O)C(=O)N[C@@H](CCCCN)C(=O)N[C@@H](CCCCNC(=O)COCCOCCNC(=O)COCCOCCNC(=O)CC[C@H](NC(=O)CCCCCCCCCCCCCCCCCCC(=O)O)C(=O)O)C(=O)N[C@@H](C)C(=O)N[C@@H](CCC(N)=O)C(=O)N[C@@H](CCCNC(=N)N)C(=O)N[C@@H](C)C(=O)N[C@@H](Cc1ccccc1)C(=O)N[C@H](C(=O)N[C@@H](CCC(=O)O)C(=O)N[C@@H](Cc1c[nH]c2ccccc12)C(=O)N[C@@H](CC(C)C)C(=O)N[C@@H](CC(C)C)C(=O)N[C@@H](C)C(=O)N[C@@H](CCC(N)=O)C(=O)N[C@@H](CCCCN)C(=O)N1CCC[C@H]1C(=O)N[C@@H](CO)C(=O)N[C@@H](CO)C(=O)NCC(=O)N[C@@H](C)C(=O)N1CCC[C@H]1C(=O)N1CCC[C@H]1C(=O)N1CCC[C@H]1C(=O)N[C@@H](CO)C(N)=O)C(C)C", "note": "[Compound 39] (H-Y[dA]EGTFTSDYSIALDKK([AEEA-AEEA-γGlu-C20 diacid])AQRAFVEWLLAQKPSSGAPPPS-NH2)", "values": [
      {"measurement": "EC50", "setting": "human GIP R", "result": 0.011, "unit": "nM"},
      {"measurement": "EC50", "setting": "human GLP-1 R", "result": 0.006, "unit": "nM"}
    ]},
    {"compound": "CC[C@H](C)[C@H](NC(=O)[C@H](CO)NC(=O)[C@H](Cc1ccc(O)cc1)NC(=O)[C@H](CC(=O)O)NC(=O)[C@H](CO)NC(=O)[C@@H](NC(=O)[C@H](Cc1ccccc1)NC(=O)[C@@H](NC(=O)CNC(=O)[C@H](CCC(=O)O)NC(=O)C(C)(C)NC(=O)[C@@H](N)Cc1ccc(O)cc1)[C@@H](C)O)[C@@H](C)O)C(=O)N[C@@H](C)C(=O)N[C@@H](CC(C)C)C(=O)N[C@@H](CC(=O)O)C(=O)N[C@@H](CCCCN)C(=O)N[C@@H](CCCCNC(=O)COCCOCCNC(=O)COCCOCCNC(=O)CC[C@H](NC(=O)CCCCCCCCCCCCCCCCCCC(=O)O)C(=O)O)C(=O)N[C@@H](C)C(=O)N[C@@H](CCC(N)=O)C(=O)N[C@@H](CCCNC(=N)N)C(=O)N[C@@H](C)C(=O)N[C@@H](Cc1ccccc1)C(=O)N[C@H](C(=O)N[C@@H](CCC(=O)O)C(=O)N[C@@H](Cc1c[nH]c2ccccc12)C(=O)N[C@@H](CC(C)C)C(=O)N[C@@H](CC(C)C)C(=O)N[C@@H](C)C(=O)N[C@@H](C)C(=O)N1CCC[C@H]1C(=O)N[C@@H](CO)C(=O)N[C@@H](CO)C(=O)NCC(=O)N[C@@H](C)C(=O)N1CCC[C@H]1C(=O)N1CCC[C@H]1C(=O)N1CCC[C@H]1C(=O)N[C@@H](CO)C(N)=O)C(C)C", "note": "[Compound 40] (H-Y[Aib]EGTFTSDYSIALDKK([AEEA-AEEA-γGlu-C20 diacid])AQRAFVEWLLAAPSSGAPPPS-NH2)", "values": [
      {"measurement": "EC50", "setting": "human GIP R", "result": 0.023, "unit": "nM"},
      {"measurement": "EC50", "setting": "human GLP-1 R", "result": 0.021, "unit": "nM"}
    ]}
  ]
}
